Data as given in ChEMBL document CHEMBL5303573, “Mapping human microbiome drug metabolism by gut bacteria and their genes” (Nature, 2019).

Experiments:
[1] = The drug is tested on Bifidobacterium breve strain: DSM20213 for biotransformation. The drug concentrations were measured before and after a 12-h incubation by liquid-chromatography-coupled mass spectrometry (LC–MS); conditions: 2 µM
[2] = The drug is tested on Eggerthella lenta strain: ATCC25559 for biotransformation. The drug concentrations were measured before and after a 12-h incubation by liquid-chromatography-coupled mass spectrometry (LC–MS); conditions: 2 µM
[3] = The drug is tested on Alistipes indistinctus strain: DSM22520 for biotransformation. The drug concentrations were measured before and after a 12-h incubation by liquid-chromatography-coupled mass spectrometry (LC–MS); conditions: 2 µM
[4] = The drug is tested on Bacteroides cellulosilyticus strain: DSM14838 for biotransformation. The drug concentrations were measured before and after a 12-h incubation by liquid-chromatography-coupled mass spectrometry (LC–MS); conditions: 2 µM
[5] = The drug is tested on Bacteroides coprophilus strain: DSM18228 for biotransformation. The drug concentrations were measured before and after a 12-h incubation by liquid-chromatography-coupled mass spectrometry (LC–MS); conditions: 2 µM
[6] = The drug is tested on Bacteroides fragilis strain: HMW615 for biotransformation. The drug concentrations were measured before and after a 12-h incubation by liquid-chromatography-coupled mass spectrometry (LC–MS); conditions: 2 µM
[7] = The drug is tested on Bacteroides ovatus strain: ATCC8483 for biotransformation. The drug concentrations were measured before and after a 12-h incubation by liquid-chromatography-coupled mass spectrometry (LC–MS); conditions: 2 µM
[8] = The drug is tested on Bacteroides uniformis strain: ATCC8492 for biotransformation. The drug concentrations were measured before and after a 12-h incubation by liquid-chromatography-coupled mass spectrometry (LC–MS); conditions: 2 µM
[9] = The drug is tested on Bacteroides vulgatus strain: ATCC8482 for biotransformation. The drug concentrations were measured before and after a 12-h incubation by liquid-chromatography-coupled mass spectrometry (LC–MS); conditions: phocaeicola vulgatus, 2 µM
[10] = The drug is tested on Bacteroides xylanisolvens strain: DSM18836 for biotransformation. The drug concentrations were measured before and after a 12-h incubation by liquid-chromatography-coupled mass spectrometry (LC–MS); conditions: 2 µM
[11] = The drug is tested on Clostridium asparagiforme strain: DSM15981 for biotransformation. The drug concentrations were measured before and after a 12-h incubation by liquid-chromatography-coupled mass spectrometry (LC–MS); format: ADME; parameters: dose 2 uM, timepoint 0 vs 12 hours; conditions: enterocloster asparagiformis, 2 µM
[12] = The drug is tested on Dorea formicigenerans strain: ATCC27755 for biotransformation. The drug concentrations were measured before and after a 12-h incubation by liquid-chromatography-coupled mass spectrometry (LC–MS); conditions: 2 µM
[13] = The drug is tested on Eubacterium hallii strain: DSM3353 for biotransformation. The drug concentrations were measured before and after a 12-h incubation by liquid-chromatography-coupled mass spectrometry (LC–MS); conditions: anaerobutyricum hallii, 2 µM
[14] = The drug is tested on Ruminococcus gnavus strain: ATCC29149 for biotransformation. The drug concentrations were measured before and after a 12-h incubation by liquid-chromatography-coupled mass spectrometry (LC–MS); conditions: mediterraneibacter gnavus, 2 µM
[15] = The drug is tested on Ruminococcus lactaris strain: ATCC29176 for biotransformation. The drug concentrations were measured before and after a 12-h incubation by liquid-chromatography-coupled mass spectrometry (LC–MS); conditions: 2 µM
[16] = The drug is tested on Providencia rettgeri strain: DSM1131 for biotransformation. The drug concentrations were measured before and after a 12-h incubation by liquid-chromatography-coupled mass spectrometry (LC–MS); format: ADME; parameters: dose 2 uM, timepoint 0 vs 12 hours; conditions: 2 µM
[17] = bifidobacterium adolescentis, 12 h, 2 µM
Description: The drug is tested on Bifidobacterium adolescentis strain: ATCC 15703 for biotransformation. The drug concentrations were measured before and after a 12-h incubation by liquid-chromatography-coupled mass spectrometry (LC–MS)

[18] = bacteroides intestinalis, 12 h, 2 µM
Description: The drug is tested on Bacteroides intestinalis strain: DSM17393 for biotransformation. The drug concentrations were measured before and after a 12-h incubation by liquid-chromatography-coupled mass spectrometry (LC–MS)

[19] = bacteroides thetaiotaomicron, 12 h, 2 µM
Description: The drug is tested on Bacteroides thetaiotaomicron strain: VPI-5482 for biotransformation. The drug concentrations were measured before and after a 12-h incubation by liquid-chromatography-coupled mass spectrometry (LC–MS)

[20] = anaerostipes sp., 12 h, 2 µM
Description: The drug is tested on Anaerostipes sp. strain: fecal isolate for biotransformation. The drug concentrations were measured before and after a 12-h incubation by liquid-chromatography-coupled mass spectrometry (LC–MS)

**Q.** What does the source list for `CC(=O)OCC(=O)[C@@]12N=C(C)O[C@@H]1C[C@H]1[C@@H]3CCC4=CC(=O)C=C[C@]4(C)[C@H]3[C@@H](O)C[C@@]12C` [DEFLAZACORT]?
**A.** Bacterial Biotransformation [1]: Compound metabolized; Bacterial Biotransformation [2]: Compound metabolized; Bacterial Biotransformation [3]: Compound metabolized; Bacterial Biotransformation [4]: Compound metabolized; Bacterial Biotransformation [5]: Compound metabolized; Bacterial Biotransformation [6]: Compound metabolized; Bacterial Biotransformation [7]: Compound metabolized; Bacterial Biotransformation [8]: Compound metabolized; Bacterial Biotransformation [9]: Compound metabolized; Bacterial Biotransformation [10]: Compound metabolized; Bacterial Biotransformation [11]: Compound metabolized; Bacterial Biotransformation [12]: Compound metabolized; Bacterial Biotransformation [13]: Compound metabolized; Bacterial Biotransformation [14]: Compound metabolized; Bacterial Biotransformation [15]: Compound metabolized; Bacterial Biotransformation [16]: Compound metabolized; Bacterial Biotransformation [17]: Compound metabolized; Bacterial Biotransformation [18]: Compound metabolized; Bacterial Biotransformation [19]: Compound metabolized; Bacterial Biotransformation [20]: Compound metabolized

**Q.** What does the source list for `CNCCC(Oc1ccc(C(F)(F)F)cc1)c1ccccc1` (configuration not stated) [FLUOXETINE]?
**A.** Bacterial Biotransformation [1]: Compound metabolized; Bacterial Biotransformation [2]: Compound NOT metabolized; Bacterial Biotransformation [3]: Compound metabolized; Bacterial Biotransformation [4]: Compound NOT metabolized; Bacterial Biotransformation [5]: Compound metabolized; Bacterial Biotransformation [6]: Compound metabolized; Bacterial Biotransformation [7]: Compound metabolized; Bacterial Biotransformation [8]: Compound metabolized; Bacterial Biotransformation [9]: Compound metabolized; Bacterial Biotransformation [10]: Compound metabolized; Bacterial Biotransformation [11]: Compound metabolized; Bacterial Biotransformation [12]: Compound metabolized; Bacterial Biotransformation [13]: Compound metabolized; Bacterial Biotransformation [14]: Compound metabolized; Bacterial Biotransformation [15]: Compound metabolized; Bacterial Biotransformation [16]: Compound NOT metabolized; Bacterial Biotransformation [17]: Compound metabolized; Bacterial Biotransformation [18]: Compound metabolized; Bacterial Biotransformation [19]: Compound metabolized; Bacterial Biotransformation [20]: Compound metabolized

**Q.** For `CC(=O)Oc1ccc(C(c2ccc(OC(C)=O)cc2)c2ccccn2)cc1` [BISACODYL], which “Bacterial Biotransformation” value [1] is on record?
**A.** Compound metabolized

**Q.** And the “Bacterial Biotransformation” value [2]?
**A.** Compound metabolized

**Q.** And the “Bacterial Biotransformation” value [3]?
**A.** Compound metabolized

**Q.** And the “Bacterial Biotransformation” value [4]?
**A.** Compound metabolized

**Q.** What about the “Bacterial Biotransformation” value [5] of the same compound?
**A.** Compound metabolized

**Q.** And the “Bacterial Biotransformation” value [6]?
**A.** Compound metabolized

**Q.** And the “Bacterial Biotransformation” value [7]?
**A.** Compound metabolized

**Q.** And the “Bacterial Biotransformation” value [8]?
**A.** Compound metabolized

**Q.** What about the “Bacterial Biotransformation” value [9] of the same compound?
**A.** Compound metabolized

**Q.** And the “Bacterial Biotransformation” value [10]?
**A.** Compound metabolized

**Q.** What about the “Bacterial Biotransformation” value [11] of the same compound?
**A.** Compound metabolized

**Q.** What about the “Bacterial Biotransformation” value [12] of the same compound?
**A.** Compound metabolized

**Q.** What about the “Bacterial Biotransformation” value [13] of the same compound?
**A.** Compound metabolized

**Q.** What about the “Bacterial Biotransformation” value [14] of the same compound?
**A.** Compound metabolized

**Q.** And the “Bacterial Biotransformation” value [15]?
**A.** Compound metabolized

**Q.** What about the “Bacterial Biotransformation” value [16] of the same compound?
**A.** Compound metabolized

**Q.** What about the “Bacterial Biotransformation” value [17] of the same compound?
**A.** Compound metabolized

**Q.** And the “Bacterial Biotransformation” value [18]?
**A.** Compound metabolized

**Q.** And the “Bacterial Biotransformation” value [19]?
**A.** Compound metabolized

**Q.** And the “Bacterial Biotransformation” value [20]?
**A.** Compound metabolized

**Q.** Which “Bacterial Biotransformation” value [1] does the source give for `COc1ccccc1OCCNCC(O)COc1cccc2[nH]c3ccccc3c12` (configuration not stated) [CARVEDILOL] here?
**A.** Compound NOT metabolized

**Q.** And the “Bacterial Biotransformation” value [2]?
**A.** Compound NOT metabolized

**Q.** What about the “Bacterial Biotransformation” value [3] of the same compound?
**A.** Compound metabolized

**Q.** What about the “Bacterial Biotransformation” value [4] of the same compound?
**A.** Compound metabolized

**Q.** What about the “Bacterial Biotransformation” value [5] of the same compound?
**A.** Compound metabolized

**Q.** And the “Bacterial Biotransformation” value [6]?
**A.** Compound metabolized

**Q.** What about the “Bacterial Biotransformation” value [7] of the same compound?
**A.** Compound metabolized

**Q.** And the “Bacterial Biotransformation” value [8]?
**A.** Compound metabolized

**Q.** What about the “Bacterial Biotransformation” value [9] of the same compound?
**A.** Compound metabolized

**Q.** What about the “Bacterial Biotransformation” value [10] of the same compound?
**A.** Compound metabolized

**Q.** And the “Bacterial Biotransformation” value [11]?
**A.** Compound metabolized

**Q.** What about the “Bacterial Biotransformation” value [12] of the same compound?
**A.** Compound NOT metabolized

**Q.** And the “Bacterial Biotransformation” value [13]?
**A.** Compound metabolized

**Q.** What about the “Bacterial Biotransformation” value [14] of the same compound?
**A.** Compound NOT metabolized

**Q.** What about the “Bacterial Biotransformation” value [15] of the same compound?
**A.** Compound metabolized

**Q.** What about the “Bacterial Biotransformation” value [16] of the same compound?
**A.** Compound NOT metabolized

**Q.** What about the “Bacterial Biotransformation” value [17] of the same compound?
**A.** Compound NOT metabolized

**Q.** And the “Bacterial Biotransformation” value [18]?
**A.** Compound metabolized

**Q.** What about the “Bacterial Biotransformation” value [19] of the same compound?
**A.** Compound metabolized

**Q.** What about the “Bacterial Biotransformation” value [20] of the same compound?
**A.** Compound metabolized

**Q.** Which results are given for `CN1CCC[C@@H]1CCO[C@](C)(c1ccccc1)c1ccc(Cl)cc1.O=C(O)/C=C/C(=O)O` [CLEMASTINE FUMARATE]?
**A.** Bacterial Biotransformation [1]: Compound NOT metabolized; Bacterial Biotransformation [2]: Compound NOT metabolized; Bacterial Biotransformation [3]: Compound NOT metabolized; Bacterial Biotransformation [4]: Compound metabolized; Bacterial Biotransformation [5]: Compound metabolized; Bacterial Biotransformation [6]: Compound NOT metabolized; Bacterial Biotransformation [7]: Compound NOT metabolized; Bacterial Biotransformation [8]: Compound metabolized; Bacterial Biotransformation [9]: Compound metabolized; Bacterial Biotransformation [10]: Compound metabolized; Bacterial Biotransformation [11]: Compound NOT metabolized; Bacterial Biotransformation [12]: Compound NOT metabolized; Bacterial Biotransformation [13]: Compound NOT metabolized; Bacterial Biotransformation [14]: Compound NOT metabolized; Bacterial Biotransformation [15]: Compound NOT metabolized; Bacterial Biotransformation [16]: Compound metabolized; Bacterial Biotransformation [18]: Compound NOT metabolized; Bacterial Biotransformation [19]: Compound NOT metabolized; Bacterial Biotransformation [20]: Compound NOT metabolized

**Q.** Which “Bacterial Biotransformation” value [1] does the source give for `CC(C(=O)O)c1ccc2c(c1)Cc1cccnc1O2` (configuration not stated) [PRANOPROFEN] here?
**A.** Compound metabolized

**Q.** And the “Bacterial Biotransformation” value [2]?
**A.** Compound NOT metabolized

**Q.** What about the “Bacterial Biotransformation” value [3] of the same compound?
**A.** Compound metabolized

**Q.** And the “Bacterial Biotransformation” value [4]?
**A.** Compound metabolized

**Q.** And the “Bacterial Biotransformation” value [5]?
**A.** Compound metabolized

**Q.** What about the “Bacterial Biotransformation” value [6] of the same compound?
**A.** Compound metabolized

**Q.** And the “Bacterial Biotransformation” value [7]?
**A.** Compound metabolized

**Q.** And the “Bacterial Biotransformation” value [8]?
**A.** Compound metabolized

**Q.** What about the “Bacterial Biotransformation” value [9] of the same compound?
**A.** Compound metabolized

**Q.** And the “Bacterial Biotransformation” value [10]?
**A.** Compound metabolized

**Q.** And the “Bacterial Biotransformation” value [11]?
**A.** Compound NOT metabolized

**Q.** What about the “Bacterial Biotransformation” value [12] of the same compound?
**A.** Compound metabolized

**Q.** What about the “Bacterial Biotransformation” value [13] of the same compound?
**A.** Compound metabolized

**Q.** What about the “Bacterial Biotransformation” value [14] of the same compound?
**A.** Compound NOT metabolized

**Q.** And the “Bacterial Biotransformation” value [15]?
**A.** Compound NOT metabolized

**Q.** And the “Bacterial Biotransformation” value [16]?
**A.** Compound metabolized

**Q.** What about the “Bacterial Biotransformation” value [18] of the same compound?
**A.** Compound metabolized

**Q.** And the “Bacterial Biotransformation” value [19]?
**A.** Compound metabolized

**Q.** And the “Bacterial Biotransformation” value [20]?
**A.** Compound NOT metabolized

**Q.** What does the source list for `Nc1ccc(/N=N/c2ccccc2)c(N)n1` [PHENAZOPYRIDINE]?
**A.** Bacterial Biotransformation [1]: Compound metabolized; Bacterial Biotransformation [2]: Compound metabolized; Bacterial Biotransformation [3]: Compound metabolized; Bacterial Biotransformation [4]: Compound metabolized; Bacterial Biotransformation [5]: Compound NOT metabolized; Bacterial Biotransformation [6]: Compound metabolized; Bacterial Biotransformation [7]: Compound metabolized; Bacterial Biotransformation [8]: Compound metabolized; Bacterial Biotransformation [9]: Compound metabolized; Bacterial Biotransformation [10]: Compound metabolized; Bacterial Biotransformation [11]: Compound metabolized; Bacterial Biotransformation [12]: Compound metabolized; Bacterial Biotransformation [13]: Compound metabolized; Bacterial Biotransformation [14]: Compound metabolized; Bacterial Biotransformation [15]: Compound metabolized; Bacterial Biotransformation [16]: Compound NOT metabolized; Bacterial Biotransformation [18]: Compound metabolized; Bacterial Biotransformation [19]: Compound metabolized; Bacterial Biotransformation [20]: Compound metabolized
